Read-outs that look alike come from different tables or passages of the source.
What was measured:
Smn protein = Smn protein assay in cultured cells (SMN HTRF); assay type: cell-based, human; conditions: 48 hours; for maximum fold (Fold) increase of Smn protein: SMA patient fibroblast cells, 7-point concentration data, fold increase relative to vehicle control (SMN HTRF); for EC1.5x (concentration giving 1.5-fold Smn protein increase): SMA Type 1 patient fibroblast cells (GM03813), 7-point concentration curve, SMN HTRF, concentration producing 1.5 times Smn protein vs DMSO vehicle control, read-out: EC1.5x for Smn protein expression
How it was run: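 Lysates in RIPA with protease inhibitors are incubated overnight at room temperature with HTRF anti-SMN antibodies. EC1.5x is derived from fold increase in ΔF over vehicle.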

[1] = system: SMN2 minigene (full length SMN2 minigene mRNA containing SMN2 exon 7); test: SMN2 minigene mRNA splicing RT-qPCR assay in cultured cells; assay type: cell-based, human; conditions: Homo sapiens, HEK293-H, read-out: EC1.5x for production of full length SMN2 mRNA
How it was run: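 HEK293H cells stably carrying the SMN2-A minigene treated 24 h at 37° C with compound (DMSO, 200× stock), then lysed. Multiplex RT-qPCR (SMN primers 0.4 μM final; 40 cycles) measures full-length exon 7-containing minigene mRNA, normalized to GAPDH and to vehicle; EC1.5x derived and binned by stars.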

[2] = HEK293H cells stably transfected with SMN2-A minigene, 24 hours, 7-point concentration curve, 1.5-fold relative to vehicle-treated cells

SMILES | melting point | maximum fold (Fold) increase of Smn protein (Smn protein) | EC (1.5-fold) [1, 2] | EC1.5x (concentration giving 1.5-fold Smn protein increase) (Smn protein) | EC (1.5-fold) ([1]; 24 h)
C[C@@H]1CN(c2cc(F)c3cc(-c4cn5ccc(C(F)(F)F)cc5n4)c(=O)oc3c2)C[C@H](C)N1 [Cpd 391, 7-[(3R,5S)-3,5-dimethylpiperazin-1-yl]-5-fluoro-3-[7-(trifluoromethyl)imidazo[1,2-a]pyridin-2-yl]-2H-chromen-2-one] | 210 to 219 °C | ** (fold increase between >1.2 and ≤1.35) | 1 to 3 µM | – | –
CN1CCCN(c2ccc3cc(-c4cn5cc(F)ccc5n4)c(=O)oc3c2)CC1 [Compound 294, 3-(6-fluoroimidazo[1,2-a]pyridin-2-yl)-7-(4-methyl-1,4-diazepan-1-yl)-2H-chromen-2-one] | 152 to 155 °C | ** (fold increase between >1.2 and ≤1.35) | 0.1 to 0.3 µM | 1000 to 3000 nM | –
C[C@@H]1CN(c2ccc3cc(C(=O)Nc4ccccc4)c(=O)oc3c2)C[C@H](C)N1 [Compound 30, 7-[(3R,5S)-3,5-dimethylpiperazin-1-yl]-2-oxo-N-phenyl-2H-chromene-3-carboxamide] | 231 to 233 °C | * (maximum fold increase of ≤1.2) | 1 to 3 µM | – | –
CCN1CCC(c2ccc3cc(-c4ccc5nc(C)cn5c4)c(=O)oc3c2)CC1 [Compound 827, 7-(1-ethylpiperidin-4-yl)-3-(2-methylimidazo[1,2-a]pyridin-6-yl)-2H-chromen-2-one] | 268 to 270 °C | ***** (fold increase >1.65) | < 0.1 µM | < 300 nM | –
CN1CCN(c2ccc3cc(-c4nc(-c5ccccc5)cs4)c(=O)oc3c2)CC1 [Compound 45, 7-(4-methylpiperazin-1-yl)-3-(4-phenyl-1,3-thiazol-2-yl)-2H-chromen-2-one] | 205 to 210 °C | * (maximum fold increase of ≤1.2) | 3 to 30 µM | – | –
COc1cccc(-c2cc3ccc(N4C[C@@H](C)N[C@@H](C)C4)cc3oc2=O)n1 [Compound 315, 7-[(3R,5S)-3,5-dimethylpiperazin-1-yl]-3-(6-methoxypyridin-2-yl)-2H-chromen-2-one] | 175 to 177 °C | * (maximum fold increase of ≤1.2) | 0.3 to 1 µM | – | –
COc1ccc(-c2cc3ccc(N4CCN[C@@H](C)C4)cc3oc2=O)c(OC)c1 [Compound 467, 3-(2,4-dimethoxyphenyl)-7-[(3S)-3-methylpiperazin-1-yl]-2H-chromen-2-one] | 103 to 105 °C | * (maximum fold increase of ≤1.2) | 3 to 30 µM | – | –
Cc1cn2cc(-c3cc4ccc(N[C@@H]5CCN(C)C5)cc4oc3=O)nc2c(C)n1 [Compound 730, 3-(6,8-dimethylimidazo[1,2-a]pyrazin-2-yl)-7-{[(3R)-1-methylpyrrolidin-3-yl]amino}-2H-chromen-2-one] | 226 to 233 °C | *** (fold increase between >1.35 and ≤1.5) | < 0.1 µM | – | –
CCN(CC)CCOc1ccc2cc(-c3cn4cc(C)nc(C)c4n3)c(=O)oc2c1 [Compound 895, 7-[2-(diethylamino)ethoxy]-3-(6,8-dimethylimidazo[1,2-a]pyrazin-2-yl)-2H-chromen-2-one] | 175 to 177 °C | ***** (fold increase >1.65) | < 0.1 µM | < 300 nM | –
Cc1ccc2nc(-c3cc4ccc(N5CCN(C)CC5)cc4oc3=O)cn2c1 [Compound 81, 3-(6-methylimidazo[1,2-a]pyridin-2-yl)-7-(4-methylpiperazin-1-yl)-2H-chromen-2-one] | 267 °C (dec.) | *** (fold increase between >1.35 and ≤1.5) | 0.3 to 1 µM | 3000 to 10000 nM | –
Cc1cc(F)c2nc(-c3cc4ccc(N5CCCN(C)CC5)cc4oc3=O)cn2c1 [Compound 355, 3-(8-fluoro-6-methylimidazo[1,2-a]pyridin-2-yl)-7-(4-methyl-1,4-diazepan-1-yl)-2H-chromen-2-one] | 233 to 240 °C | **** (fold increase between >1.5 and ≤1.65) | < 0.1 µM | 300 to 1000 nM | –
Cc1ccc2nc(-c3cc4ccc(CN5CCC(O)CC5)cc4oc3=O)cn2c1 [Compound 252, 7-[(4-hydroxypiperidin-1-yl)methyl]-3-(6-methylimidazo[1,2-a]pyridin-2-yl)-2H-chromen-2-one] | 261 to 264 °C | ** (fold increase between >1.2 and ≤1.35) | 3 to 30 µM | – | –
Cc1nccn2cc(-c3cc4ccc(N5CCNCC5)cc4oc3=O)nc12 [Compound 571, 3-(8-methylimidazo[1,2-a]pyrazin-2-yl)-7-(piperazin-1-yl)-2H-chromen-2-one] | 213 to 215 °C | ** (fold increase between >1.2 and ≤1.35) | 0.3 to 1 µM | – | –
C[C@H]1CN(c2ccc3cc(-c4cn5cccc(Cl)c5n4)c(=O)oc3c2)CCN1 [Compound 184, 3-(8-chloroimidazo[1,2-a]pyridin-2-yl)-7-[(3S)-3-methylpiperazin-1-yl]-2H-chromen-2-one] | 215 to 217 °C | *** (fold increase between >1.35 and ≤1.5) | 0.3 to 1 µM | – | –
O=C(Oc1ccc2cc(-c3nc4ccccc4s3)c(=O)oc2c1)N1CCNCC1 [Compound 41, 3-(1,3-benzothiazol-2-yl)-2-oxo-2H-chromen-7-yl piperazine-1-carboxylate] | 221 to 225 °C | * (maximum fold increase of ≤1.2) | – | – | 1 to 3 µM
Cc1ccn2cc(-c3cc4ccc(N5CCN(C)[C@@H](C)C5)cc4oc3=O)nc2c1 [Compound 379, 7-[(3S)-3,4-dimethylpiperazin-1-yl]-3-(7-methylimidazo[1,2-a]pyridin-2-yl)-2H-chromen-2-one] | 231 to 241 °C | *** (fold increase between >1.35 and ≤1.5) | 0.3 to 1 µM | – | –
Cc1cn2cc(-c3cc4ccc(CCCN(C)C)cc4oc3=O)cc(F)c2n1 [Compound 909, 7-[3-(dimethylamino)propyl]-3-(8-fluoro-2-methylimidazo[1,2-a]pyridin-6-yl)-2H-chromen-2-one] | 185 to 188 °C | ***** (fold increase >1.65) | < 0.1 µM | < 300 nM | –
O=c1oc2cc(N3CCNCC3)ccc2cc1-c1cc2ccccc2o1 [Compound 602, 3-(1-benzofuran-2-yl)-7-(piperazin-1-yl)-2H-chromen-2-one] | 208 to 211 °C | * (maximum fold increase of ≤1.2) | 0.3 to 1 µM | – | –
O=c1oc2cc(N3CCNCC3)cc(F)c2cc1-c1nc2ccccc2s1 [Cpd 160, 3-(1,3-benzothiazol-2-yl)-5-fluoro-7-(piperazin-1-yl)-2H-chromen-2-one] | 256 to 260 °C | * (maximum fold increase of ≤1.2) | 0.3 to 1 µM | – | –
Cc1cn2cc(-c3cc4ccc(N5CCCN(C)CC5)cc4oc3=O)cc2cn1 [Compound 589, 7-(4-methyl-1,4-diazepan-1-yl)-3-(3-methylpyrrolo[1,2-a]pyrazin-7-yl)-2H-chromen-2-one] | 148 to 150 °C | ***** (fold increase >1.65) | < 0.1 µM | < 300 nM | –
Cc1ccn2cc(-c3cc4ccc(NC5CCNCC5)cc4oc3=O)nc2c1 [Compound 495, 3-(7-methylimidazo[1,2-a]pyridin-2-yl)-7-(piperidin-4-ylamino)-2H-chromen-2-one] | 232 to 239 °C | * (maximum fold increase of ≤1.2) | 1 to 3 µM | – | –
Cl.Cl.O=c1oc2cc(O[C@@H]3CCNC3)ccc2cc1-c1cn2ccsc2n1 [Compound 324, 3-(imidazo[2,1-b][1,3]thiazol-6-yl)-7-[(3R)-pyrrolidin-3-yloxy]-2H-chromen-2-one hydrochloride (1:2)] | 252 to 256 °C | *** (fold increase between >1.35 and ≤1.5) | 0.3 to 1 µM | – | –
CCN1CCCN(c2ccc3cc(-c4cc5cnc(C)cn5c4)c(=O)oc3c2)CC1 [Compound 667, 7-(4-ethyl-1,4-diazepan-1-yl)-3-(3-methylpyrrolo[1,2-a]pyrazin-7-yl)-2H-chromen-2-one] | 130 to 133 °C | **** (fold increase between >1.5 and ≤1.65) | < 0.1 µM | < 300 nM | –
COc1ccc(-c2cc3c(F)cc(N4CCCN(C)CC4)cc3oc2=O)cc1OC [Compound 406, 3-(3,4-dimethoxyphenyl)-5-fluoro-7-(4-methyl-1,4-diazepan-1-yl)-2H-chromen-2-one] | 134 to 140 °C | * (maximum fold increase of ≤1.2) | 3 to 30 µM | – | –

— patent publication USRE47689E1, “Compounds for treating spinal muscular atrophy” (PTC Therapeutics, Inc., priority 2011, dated 2019)
